Assay results: ChEMBL document CHEMBL2401634, “Discovery of novel indolinone-based, potent, selective and brain penetrant inhibitors of LRRK2” (Bioorg Med Chem Lett, 2013)
In brackets after ≈: the same amount, converted by molar mass. Activity calls are given as the source filed them. The rule behind the calls is not given here.

Key:
[1] = biological target: Proto-oncogene tyrosine-protein kinase receptor Ret (Homo sapiens, UniProt P07949); test: Inhibition of RET (unknown origin)
[2] = biological target: Tyrosine-protein kinase Lck (Homo sapiens, UniProt P06239); test: Inhibition of LCK (unknown origin)
[3] = biological target: Platelet-derived growth factor receptor alpha (Homo sapiens, UniProt P16234); test: Inhibition of PDGFRa (unknown origin)
[4] = biological target: ALK tyrosine kinase receptor (Homo sapiens, UniProt Q9UM73); test: Inhibition of ALK (unknown origin)
[5] = biological target: Vascular endothelial growth factor receptor 2 (Homo sapiens, UniProt P35968); test: Inhibition of KDR (unknown origin)
[6] = biological target: Leucine-rich repeat serine/threonine-protein kinase 2 (Homo sapiens, UniProt Q5S007); test: Inhibition of human LRRK2 (1885 to 2132) using 5-Fluo-Ahx-RLGRDKYKTLRQIRQGNTK-OH as substrate after 60 mins by fluorescence assay
Mus musculus [7] = test: Binding affinity to LRRK2 in C57BL/6 mouse brain at 90 mg/kg, iv after 1 hr by pull down assay; type: functional, organism-based; design: dose 90 mg/kg
[8] = biological target: Leucine-rich repeat serine/threonine-protein kinase 2 (Mus musculus) (UniProt Q5S006); test: Binding affinity to LRRK2 in C57BL/6 mouse brain at 1 uM after 30 mins by competition pull down assay; type: tissue-based
Mus musculus [9] = test: Binding affinity to LRRK2 in C57BL/6 mouse brain at 10 to 180 mg/kg, po after 2 hrs by pull down assay relative to vehicle-treated control; type: functional, organism-based
[10] = Solubility of the compound at pH 6.8; type: physicochemical; conditions: buffer
[11] = biological target: Leucine-rich repeat serine/threonine-protein kinase 2 (Mus musculus) (UniProt Q5S006); test: Binding affinity to LRRK2 in mouse C2C12 cells at 1 uM after 30 mins by competition pull down assay; type: cell-based
Mus musculus [12] = test: Binding affinity to LRRK2 in po dosed C57BL/6 mouse brain after 2 hrs by pull down assay; type: functional, organism-based

Chain of Platelet-derived growth factor receptor alpha (P16234 whole entry): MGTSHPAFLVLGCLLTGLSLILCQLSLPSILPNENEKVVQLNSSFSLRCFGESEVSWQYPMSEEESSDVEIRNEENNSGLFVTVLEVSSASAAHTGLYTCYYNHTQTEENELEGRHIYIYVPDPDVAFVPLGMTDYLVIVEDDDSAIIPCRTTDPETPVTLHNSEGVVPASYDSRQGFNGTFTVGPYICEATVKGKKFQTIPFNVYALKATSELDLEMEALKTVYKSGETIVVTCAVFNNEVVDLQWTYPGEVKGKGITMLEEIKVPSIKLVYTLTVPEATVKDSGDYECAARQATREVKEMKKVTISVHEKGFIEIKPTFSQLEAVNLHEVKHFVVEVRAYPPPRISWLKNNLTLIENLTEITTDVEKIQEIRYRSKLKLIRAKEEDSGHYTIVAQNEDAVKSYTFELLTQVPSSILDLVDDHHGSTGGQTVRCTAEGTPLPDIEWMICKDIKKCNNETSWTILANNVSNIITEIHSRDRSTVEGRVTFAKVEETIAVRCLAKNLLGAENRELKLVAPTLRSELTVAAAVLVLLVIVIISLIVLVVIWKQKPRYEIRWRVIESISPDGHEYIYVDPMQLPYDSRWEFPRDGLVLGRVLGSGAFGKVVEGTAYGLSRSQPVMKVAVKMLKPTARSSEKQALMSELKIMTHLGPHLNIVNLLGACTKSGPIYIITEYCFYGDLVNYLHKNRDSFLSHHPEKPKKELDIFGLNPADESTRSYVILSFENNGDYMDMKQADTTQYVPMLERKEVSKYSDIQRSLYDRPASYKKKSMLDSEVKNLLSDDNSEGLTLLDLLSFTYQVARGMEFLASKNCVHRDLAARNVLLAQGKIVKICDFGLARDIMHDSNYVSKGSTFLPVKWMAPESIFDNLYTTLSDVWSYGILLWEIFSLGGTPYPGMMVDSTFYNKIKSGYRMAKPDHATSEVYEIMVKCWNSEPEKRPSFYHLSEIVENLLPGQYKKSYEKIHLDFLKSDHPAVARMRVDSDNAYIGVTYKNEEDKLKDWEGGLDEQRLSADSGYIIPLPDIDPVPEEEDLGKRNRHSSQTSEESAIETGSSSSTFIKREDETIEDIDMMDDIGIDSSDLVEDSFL
Chain of Proto-oncogene tyrosine-protein kinase receptor Ret (P07949 whole entry): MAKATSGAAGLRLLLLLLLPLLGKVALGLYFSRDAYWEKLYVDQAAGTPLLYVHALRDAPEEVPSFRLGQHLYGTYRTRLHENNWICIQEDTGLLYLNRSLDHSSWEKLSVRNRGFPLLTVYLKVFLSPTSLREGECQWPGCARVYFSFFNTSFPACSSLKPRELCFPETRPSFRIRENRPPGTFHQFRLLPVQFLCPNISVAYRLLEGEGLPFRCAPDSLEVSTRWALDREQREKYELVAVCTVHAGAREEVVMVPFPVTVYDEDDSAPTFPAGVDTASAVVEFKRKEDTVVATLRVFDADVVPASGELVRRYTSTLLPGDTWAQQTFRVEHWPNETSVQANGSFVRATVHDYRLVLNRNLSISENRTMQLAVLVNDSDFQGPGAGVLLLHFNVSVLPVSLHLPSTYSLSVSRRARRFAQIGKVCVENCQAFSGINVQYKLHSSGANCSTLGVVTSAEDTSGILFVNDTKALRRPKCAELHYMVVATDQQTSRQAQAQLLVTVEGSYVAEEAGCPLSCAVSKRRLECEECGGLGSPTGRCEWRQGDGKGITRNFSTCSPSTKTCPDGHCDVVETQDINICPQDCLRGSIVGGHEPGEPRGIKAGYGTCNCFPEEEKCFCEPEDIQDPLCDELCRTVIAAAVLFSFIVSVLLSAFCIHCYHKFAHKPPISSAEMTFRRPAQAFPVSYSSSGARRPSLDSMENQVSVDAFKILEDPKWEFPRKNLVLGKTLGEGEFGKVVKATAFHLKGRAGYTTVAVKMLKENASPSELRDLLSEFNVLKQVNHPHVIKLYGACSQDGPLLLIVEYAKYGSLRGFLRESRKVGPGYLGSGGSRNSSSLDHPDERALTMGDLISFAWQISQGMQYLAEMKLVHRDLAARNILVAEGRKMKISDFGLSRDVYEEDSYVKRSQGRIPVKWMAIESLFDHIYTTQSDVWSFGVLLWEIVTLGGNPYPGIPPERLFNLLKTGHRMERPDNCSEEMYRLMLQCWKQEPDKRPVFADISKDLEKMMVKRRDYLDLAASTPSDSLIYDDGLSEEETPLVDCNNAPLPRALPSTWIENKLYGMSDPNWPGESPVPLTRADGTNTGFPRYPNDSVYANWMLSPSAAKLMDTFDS
Chain of Tyrosine-protein kinase Lck (P06239 whole entry): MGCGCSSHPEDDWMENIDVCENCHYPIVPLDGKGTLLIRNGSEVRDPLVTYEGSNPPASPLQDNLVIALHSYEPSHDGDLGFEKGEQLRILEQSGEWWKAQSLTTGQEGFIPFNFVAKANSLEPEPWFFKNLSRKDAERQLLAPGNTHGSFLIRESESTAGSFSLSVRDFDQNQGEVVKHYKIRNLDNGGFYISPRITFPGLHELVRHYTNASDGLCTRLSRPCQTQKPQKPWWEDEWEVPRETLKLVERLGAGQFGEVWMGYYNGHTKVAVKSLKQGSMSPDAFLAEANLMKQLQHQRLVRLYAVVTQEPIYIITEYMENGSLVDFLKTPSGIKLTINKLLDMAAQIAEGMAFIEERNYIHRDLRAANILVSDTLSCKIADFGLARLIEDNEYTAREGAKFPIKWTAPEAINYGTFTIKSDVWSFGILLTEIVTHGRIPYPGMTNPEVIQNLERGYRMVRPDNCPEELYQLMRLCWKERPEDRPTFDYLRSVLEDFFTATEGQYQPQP
Chain of Vascular endothelial growth factor receptor 2 (P35968 whole entry): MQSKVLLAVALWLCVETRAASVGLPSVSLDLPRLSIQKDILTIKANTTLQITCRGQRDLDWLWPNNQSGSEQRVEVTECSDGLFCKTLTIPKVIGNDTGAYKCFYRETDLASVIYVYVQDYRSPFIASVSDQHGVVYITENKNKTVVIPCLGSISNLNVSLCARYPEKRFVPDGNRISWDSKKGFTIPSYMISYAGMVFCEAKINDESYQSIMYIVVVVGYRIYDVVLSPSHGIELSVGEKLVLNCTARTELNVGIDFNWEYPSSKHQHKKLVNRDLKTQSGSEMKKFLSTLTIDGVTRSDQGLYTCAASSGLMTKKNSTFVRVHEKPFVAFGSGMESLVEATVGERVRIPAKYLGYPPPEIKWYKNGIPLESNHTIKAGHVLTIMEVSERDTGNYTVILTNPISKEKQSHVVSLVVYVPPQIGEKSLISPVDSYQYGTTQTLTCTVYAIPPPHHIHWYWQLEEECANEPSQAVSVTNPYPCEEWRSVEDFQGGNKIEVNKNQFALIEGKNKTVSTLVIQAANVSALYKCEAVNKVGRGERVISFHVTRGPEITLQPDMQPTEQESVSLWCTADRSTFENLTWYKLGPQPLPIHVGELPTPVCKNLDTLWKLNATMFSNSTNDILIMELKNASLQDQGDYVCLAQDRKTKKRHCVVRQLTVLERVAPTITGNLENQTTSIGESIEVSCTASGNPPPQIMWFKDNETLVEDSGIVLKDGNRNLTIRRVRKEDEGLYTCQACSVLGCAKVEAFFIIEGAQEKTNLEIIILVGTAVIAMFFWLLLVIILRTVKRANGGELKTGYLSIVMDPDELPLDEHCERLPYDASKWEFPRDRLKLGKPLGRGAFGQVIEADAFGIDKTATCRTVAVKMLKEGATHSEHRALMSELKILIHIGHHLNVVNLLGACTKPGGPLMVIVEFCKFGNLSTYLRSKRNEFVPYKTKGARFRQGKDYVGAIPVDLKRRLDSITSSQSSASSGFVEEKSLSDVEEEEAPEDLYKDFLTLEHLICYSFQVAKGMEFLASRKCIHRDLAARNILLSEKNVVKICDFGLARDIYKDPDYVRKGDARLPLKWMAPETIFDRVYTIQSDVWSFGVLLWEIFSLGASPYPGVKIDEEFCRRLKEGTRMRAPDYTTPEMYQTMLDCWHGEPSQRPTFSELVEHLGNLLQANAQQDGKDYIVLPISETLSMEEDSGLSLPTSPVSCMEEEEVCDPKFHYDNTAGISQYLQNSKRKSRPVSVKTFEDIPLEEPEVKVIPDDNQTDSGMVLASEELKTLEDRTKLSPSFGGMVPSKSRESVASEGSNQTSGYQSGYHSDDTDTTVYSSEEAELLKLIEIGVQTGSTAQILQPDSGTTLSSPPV

| SMILES | IC50 [1] | IC50 [2] | IC50 [3] | IC50 [4] | IC50 [5] | IC50 [6] | Activity (Mus musculus [7]) | Activity [8] | Activity (Mus musculus [9]) | solubility [10] | Activity [11] | Activity (Mus musculus [12]) |
| --- | --- | --- | --- | --- | --- | --- | --- | --- | --- | --- | --- | --- |
| COc1ccc2c(c1)/C(=C/c1[nH]c(C)c(C(=O)NCCCN)c1C)C(=O)N2 | < 1000 nM | < 1000 nM | < 1000 nM | < 1000 nM | < 1000 nM | 46 nM | – | – | – | – | – | – |
| CN1CCC(Nc2ccc3c(c2)/C(=C/c2cc4c([nH]2)CCN(C(=O)N2CCOCC2)C4)C(=O)N3)CC1 | 5 nM | 7 nM | 13 nM | 76 nM | 3 nM | < 3 nM | – | – | – | – | – | – |
| COc1ccc2c(c1)/C(=C/c1cc3c([nH]1)CCN(C(=O)N1CCOCC1)C3)C(=O)N2C | – | – | – | – | – | 150 nM | – | – | – | – | – | – |
| CC(=O)N1CCc2[nH]c(/C=C3\C(=O)Nc4ccc(C#N)cc43)cc2C1 | 4 nM | 120 nM | < 3 nM | 1600 nM | 20 nM | 7 nM | – | – | – | – | – | – |
| COc1ccc2c(c1)/C(=C/c1cc3c([nH]1)CCN(C(=O)N1CCOCC1)C3)C(=O)N2 | 25 nM | 120 nM | 150 nM | 660 nM | 5 nM | 3 nM | – | – | – | – | – | – |
| COc1ccc2c(c1)/C(=C/c1cc3c([nH]1)CCN(C(=O)c1cnoc1C)C3)C(=O)N2 | 75 nM | 390 nM | 540 nM | 1400 nM | 16 nM | 7 nM | – | – | – | – | – | – |
| COc1ccc2c(c1)/C(=C/c1cc3c([nH]1)CCN(C(C)=O)C3)C(=O)N2 | 54 nM | 6050 nM | 250 nM | 1500 nM | 210 nM | 14 nM | – | – | – | – | – | – |
| CC(=O)N1CCc2[nH]c(/C=C3\C(=O)Nc4ccc([N+](=O)[O-])cc43)cc2C1 | 73 nM | 1000 nM | 31 nM | > 10000 nM | 60 nM | < 3 nM | – | – | – | – | – | – |
| COc1ccc2c(c1)/C(=C/c1cc3c([nH]1)CCN(C(=O)N1CCN(C)CC1)C3)C(=O)N2 | 6 nM | 50 nM | 60 nM | 550 nM | 6 nM | 9 nM | inactive | Active | Active | 15 µg/mL (≈ 35.6 µM) | Active | Dose-dependent effect |
| O=C1Nc2ccc(C(F)(F)F)cc2/C1=C/c1cc2c([nH]1)CCN(C(=O)N1CCOCC1)C2 | 140 nM | 180 nM | 46 nM | > 10000 nM | 83 nM | < 3 nM | – | – | – | – | – | – |
| CC(=O)N1CCc2[nH]c(/C=C3\C(=O)Nc4ccc(C(F)(F)F)cc43)cc2C1 | 300 nM | 360 nM | 60 nM | 9500 nM | 320 nM | 31 nM | – | – | – | – | – | – |
| CC(=O)Nc1ccc2c(c1)/C(=C/c1cc3c([nH]1)CCN(C(=O)N1CCOCC1)C3)C(=O)N2 | 25 nM | 330 nM | 91 nM | 210 nM | 7 nM | 4 nM | – | – | – | – | – | – |
| COc1ccc2c(c1)/C(=C/c1cc3c([nH]1)CCN(C(=O)CCN)C3)C(=O)N2 | 4 nM | 140 nM | 120 nM | 370 nM | 8 nM | 11 nM | – | – | – | – | – | – |
| CC(=O)N1CCc2[nH]c(/C=C3\C(=O)Nc4ccc(OC(C)C)cc43)cc2C1 | 150 nM | 1100 nM | 1700 nM | 3300 nM | 900 nM | 4 nM | – | – | – | < 1 µg/mL | – | – |
| COc1ccc2c(c1)/C(=C/c1[nH]c3c(c1Cl)CN(C(C)=O)CC3)C(=O)N2 | 34 nM | 1100 nM | – | > 10000 nM | 87 nM | 8 nM | – | – | – | – | – | – |
